Assay results as given in patent publication US12581252B2, “Substituted pyrrolo[3,4-b]pyridines as PI3K-α inhibitors” (Relay Therapeutics, Inc., priority 2020, dated 2026).
pIC50: −log10 of the molar value.

How the values were obtained:
cells = details: Homo sapiens, MCF-10A, read-out: MCF10A IC50
H1047R PIK3CA enzyme = H1047R PIK3CA enzyme (Homo sapiens, UniProt P42336, H1047R); assay: ADP-Glo Biochemical PIK3CA Kinase Assay
H1047R PIK3CA enzyme, sequence (P42336 whole entry H1047R): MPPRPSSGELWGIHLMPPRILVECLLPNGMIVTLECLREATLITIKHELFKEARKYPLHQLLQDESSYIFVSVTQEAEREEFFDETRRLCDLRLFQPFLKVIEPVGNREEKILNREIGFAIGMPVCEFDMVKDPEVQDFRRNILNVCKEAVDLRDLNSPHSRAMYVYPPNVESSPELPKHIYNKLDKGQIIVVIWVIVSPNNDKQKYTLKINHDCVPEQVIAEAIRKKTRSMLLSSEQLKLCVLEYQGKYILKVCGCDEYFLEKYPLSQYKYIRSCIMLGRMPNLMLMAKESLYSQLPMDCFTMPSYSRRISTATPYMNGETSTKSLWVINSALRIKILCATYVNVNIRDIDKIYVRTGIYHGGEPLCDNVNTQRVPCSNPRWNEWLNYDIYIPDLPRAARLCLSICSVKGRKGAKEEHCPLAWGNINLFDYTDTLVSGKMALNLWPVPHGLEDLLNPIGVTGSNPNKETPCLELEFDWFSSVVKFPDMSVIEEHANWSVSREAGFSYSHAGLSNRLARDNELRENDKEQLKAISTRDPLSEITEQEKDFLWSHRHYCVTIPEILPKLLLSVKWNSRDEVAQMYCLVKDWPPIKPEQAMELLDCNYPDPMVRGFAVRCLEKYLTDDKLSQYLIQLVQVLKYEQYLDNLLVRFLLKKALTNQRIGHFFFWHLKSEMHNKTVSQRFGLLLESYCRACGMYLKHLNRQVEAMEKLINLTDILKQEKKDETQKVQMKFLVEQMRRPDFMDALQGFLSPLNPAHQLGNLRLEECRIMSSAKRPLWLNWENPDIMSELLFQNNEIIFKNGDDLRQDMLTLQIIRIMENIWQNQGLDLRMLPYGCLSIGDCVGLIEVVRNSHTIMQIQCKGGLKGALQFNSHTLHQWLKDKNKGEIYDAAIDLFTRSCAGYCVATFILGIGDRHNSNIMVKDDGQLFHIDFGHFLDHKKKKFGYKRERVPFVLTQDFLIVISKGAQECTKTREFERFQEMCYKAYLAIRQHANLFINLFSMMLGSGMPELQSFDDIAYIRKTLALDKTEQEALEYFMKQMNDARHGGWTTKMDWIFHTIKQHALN
H1047R PIK3CA enzyme, sequence (P27986 whole entry partner): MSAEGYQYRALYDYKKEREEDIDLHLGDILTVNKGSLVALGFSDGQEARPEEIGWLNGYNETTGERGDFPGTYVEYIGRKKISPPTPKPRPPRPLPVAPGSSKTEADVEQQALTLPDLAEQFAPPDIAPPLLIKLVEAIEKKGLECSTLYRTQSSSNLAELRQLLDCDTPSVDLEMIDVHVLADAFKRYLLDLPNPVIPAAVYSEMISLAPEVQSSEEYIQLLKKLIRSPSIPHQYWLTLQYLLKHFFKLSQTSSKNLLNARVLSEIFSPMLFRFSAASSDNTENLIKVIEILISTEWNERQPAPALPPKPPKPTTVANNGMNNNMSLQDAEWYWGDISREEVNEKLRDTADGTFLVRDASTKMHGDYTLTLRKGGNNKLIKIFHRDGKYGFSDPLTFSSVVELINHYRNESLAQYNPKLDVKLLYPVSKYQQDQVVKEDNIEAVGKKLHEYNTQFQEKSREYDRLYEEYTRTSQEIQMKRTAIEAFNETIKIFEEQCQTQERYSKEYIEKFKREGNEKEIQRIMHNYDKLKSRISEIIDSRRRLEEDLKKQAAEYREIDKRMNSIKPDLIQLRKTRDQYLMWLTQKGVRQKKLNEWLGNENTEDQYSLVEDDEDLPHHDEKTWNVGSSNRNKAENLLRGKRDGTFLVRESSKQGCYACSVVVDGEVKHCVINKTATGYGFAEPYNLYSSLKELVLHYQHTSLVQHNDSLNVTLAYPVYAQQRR

Row | SMILES | pIC50 (cells) | pIC50 (H1047R PIK3CA enzyme)
1 | N#CCc1cc(NC(=O)N2C[C@@H](O)c3cc(F)ccc32)c2c(c1)C(=O)N[C@H]2c1cc(F)ccc1Cl (single isomer, unassigned) [Compound I-2537] | > 6.00 | ≥ 7.00
2 | O=C(Nc1cc(-c2cnn(C3CNC3)c2)cc2c1C(c1cc(F)ccc1Cl)NC2=O)c1cc(F)cc(C(F)(F)F)c1 (stereo not shown) [Compound I-903] | 4.44 to 5.00 | ≥ 7.00
3 | Nc1cc(NC(=O)N2C[C@@H](O)c3cc(F)ccc32)c2c(c1)C(=O)N[C@@H]2c1cc(F)ccc1Cl (single isomer, unassigned) [Compound I-2410] | > 6.00 | ≥ 7.00
4 | Cc1ccccc1C1NC(=O)c2cccc(NC(=O)c3nsc4ccccc34)c21 (stereo not shown) [Compound I-13, N-(1-Oxo-3-(o-tolyl)isoindolin-4-yl)benzo[d]isothiazole-3-carboxamide] | 5.30 to 6.00 | 6.30 to 7.00
5 | O=C1NC(c2cc(F)ccc2C(F)F)c2c(NC(=O)N3CC(O)c4cc(F)ccc43)cc(Br)cc21 (stereo not shown) [Compound I-2257] | 5.30 to 6.00 | ≥ 7.00
6 | O=C1N[C@@H](c2cc(F)ccc2Cl)c2c(Nc3nccc4c(C(F)(F)F)cc(F)cc34)cc(Br)cc21 [Compound I-1109] | > 6.00 | ≥ 7.00
7 | [2H]C1([2H])N(C(=O)Nc2cccc3c2[C@H](c2cc(F)ccc2Cl)NC3=O)c2ccc(F)cc2[C@]1(O)C(F)(F)F (single isomer, unassigned) [Compound I-2595] | > 6.00 | ≥ 7.00
8 | Cn1nccc1-c1cc(NC(=O)c2cc(F)cc(C(F)(F)F)c2)c2c(c1)C(=O)NC2c1cc(F)ccc1Cl (stereo not shown) [Compound I-906] | > 6.00 | ≥ 7.00
9 | O=C(Nc1cc(-c2c[nH]nn2)cc2c1C(c1cc(F)ccc1Cl)NC2=O)c1cc(F)cc(C(F)(F)F)c1 (stereo not shown) [Compound I-840] | > 6.00 | ≥ 7.00
10 | Cn1cnnc1Nc1cc(NC(=O)c2cc(F)cc(C(F)(F)F)c2)c2c(c1)C(=O)NC2c1cc(F)ccc1Cl (stereo not shown) [Compound I-1083] | 5.30 to 6.00 | ≥ 7.00
11 | O=C(Nc1cc(NC2=NC3(CC3)CO2)cc2c1C(c1cc(F)ccc1Cl)NC2=O)c1cc(F)cc(C(F)(F)F)c1 (stereo not shown) [Compound I-2359] | 5.30 to 6.00 | ≥ 7.00
12 | Cn1cc(Nc2cc(NC(=O)c3cc(F)cc(C(F)(F)F)c3)c3c(c2)C(=O)N[C@H]3c2cc(F)ccc2Cl)cn1 (single isomer, unassigned) [Compound I-997] | > 6.00 | ≥ 7.00
13 | CNc1cc(NC(=O)c2csc3ccccc23)c2c(c1)C(=O)NC2c1ccccc1C (stereo not shown) [Compound I-39] | 5.30 to 6.00 | ≥ 7.00
14 | COc1ncc(-c2cc(NC(=O)c3cc(F)cc(C(F)(F)F)c3)c3c(c2)C(=O)N[C@H]3c2cc(F)ccc2Cl)cn1 [Compound I-882] | > 6.00 | ≥ 7.00
15 | O=C1N[C@@H](c2cc(F)ccc2Cl)c2c(NC(=O)N3C[C@@H](O)c4ccc(F)cc43)cccc21 (stereo in doubt) [Compound I-2171] | > 6.00 | ≥ 7.00
16 | O=C1N[C@@H](c2cccc(F)c2F)c2c(NC(=O)c3csc4ccccc34)ccnc21 [Compound I-22] | 5.30 to 6.00 | 6.00 to 6.30
17 | O=C1N[C@@H](c2cc(F)ccc2Cl)c2c(NC(=O)N3C[C@@](O)(C(F)(F)F)c4ccccc43)cc(Cl)cc21 (single isomer, unassigned) [Compound I-2509] | > 6.00 | ≥ 7.00
18 | O=C(Nc1cc(-n2ccnc2)cc2c1C(c1cc(F)ccc1Cl)NC2=O)c1cc(F)cc(C(F)(F)F)c1 (stereo not shown) [Compound I-1015] | > 6.00 | ≥ 7.00
19 | Cc1[nH]ncc1Nc1cc(NC(=O)c2cc(F)cc(C(F)(F)F)c2)c2c(c1)C(=O)NC2c1cc(F)ccc1Cl (stereo not shown) [Compound I-1017] | > 6.00 | ≥ 7.00
20 | Cc1nc(Nc2cc(NC(=O)c3cc(F)cc(C(F)(F)F)c3)c3c(c2)C(=O)NC3c2cc(F)ccc2Cl)oc1C (stereo not shown) [Compound I-966] | > 6.00 | ≥ 7.00
21 | [2H]C1(c2ccccc2C)NC(=O)c2cccc(NC(=O)c3csc4ccccc34)c21 (stereo not shown) [Compound I-25] | 5.30 to 6.00 | ≥ 7.00
22 | NCc1cc(NC(=O)N2C[C@@](O)(C(F)F)c3cc(F)ccc32)c2c(c1)C(=O)N[C@@H]2c1cc(F)ccc1Cl (single isomer, unassigned) [Compound I-2694] | 5.30 to 6.00 | ≥ 7.00
23 | O=C(Nc1cc(-c2ccc3ncnn3c2)cc2c1[C@H](c1cc(F)cc(F)c1Cl)NC2=O)c1cc(F)cc(C(F)(F)F)c1 (stereo in doubt) [Compound I-1062] | > 6.00 | ≥ 7.00
24 | O=C1N[C@H](c2cc(F)ccc2Cl)c2c(NC(=O)N3C[C@@H](O)c4cc(F)ccc43)cc(Cl)cc21 (single isomer, unassigned) [Compound I-2402] | > 6.00 | ≥ 7.00
25 | Cn1nccc1CNc1cc(NC(=O)c2cc(F)cc(C(F)(F)F)c2)c2c(c1)C(=O)NC2c1cc(F)ccc1Cl (stereo not shown) [Compound I-1082] | > 6.00 | ≥ 7.00
26 | Cn1cc(-c2cc(NC(=O)c3cc(F)cc(C(F)(F)F)c3)c3c(c2)C(=O)NC3c2cc(F)ccc2Cl)cn1 (stereo not shown) [Compound I-811] | > 6.00 | ≥ 7.00
27 | Cc1ccccc1C1NC(=O)c2cc(C(=O)NCC(F)F)cc(NC(=O)c3nsc4ccccc34)c21 (stereo not shown) [Compound I-121] | > 6.00 | ≥ 7.00

Row | SMILES | pIC50 (cells) | pIC50 (H1047R PIK3CA enzyme)
28 | O=C1NC(c2cc(F)ccc2Cl)c2c(NC(=O)N3CC(O)c4cc(F)ccc43)cc(-c3cnn(C(F)F)c3)cc21 (stereo not shown) [Compound I-2299] | 5.30 to 6.00 | ≥ 7.00
29 | Cn1nncc1-c1cc(NC(=O)c2cc(F)cc(C(F)(F)F)c2)c2c(c1)C(=O)NC2c1cc(F)ccc1Cl (stereo not shown) [Compound I-1030] | > 6.00 | ≥ 7.00
30 | Nc1cc(NC(=O)N2C[C@@H](O)c3cc(F)ccc32)c2c(c1)C(=O)N[C@H]2c1cc(F)ccc1Cl (single isomer, unassigned) [Compound I-2411] | 4.44 to 5.00 | ≥ 7.00
31 | N#CCN1CC(c2cc(NC(=O)c3cc(F)cc(C(F)(F)F)c3)c3c(c2)C(=O)NC3c2cc(F)ccc2Cl)C1 (stereo not shown) [Compound I-1158] | > 6.00 | ≥ 7.00
32 | O=C(Nc1cc(CC2(O)CNC2)cc2c1C(c1cc(F)ccc1Cl)NC2=O)c1cc(F)cc(C(F)(F)F)c1 (stereo not shown) [Compound I-926] | 4.44 to 5.00 | ≥ 7.00
33 | O=C(Nc1cc(-n2ccccc2=O)cc2c1C(c1cc(F)ccc1Cl)NC2=O)c1cc(F)cc(C(F)(F)F)c1 (stereo not shown) [Compound I-2192] | 5.30 to 6.00 | ≥ 7.00
34 | O=C(Nc1cc(-c2n[nH]c3ncccc23)cc2c1C(c1cc(F)ccc1Cl)NC2=O)c1cc(F)cc(C(F)(F)F)c1 (stereo not shown) [Compound I-939] | > 6.00 | ≥ 7.00
35 | Cn1ccc(Nc2cc(NC(=O)c3cc(F)cc(C(F)(F)F)c3)c3c(c2)C(=O)N[C@H]3c2cc(F)ccc2Cl)n1 [Compound I-1071] | > 6.00 | ≥ 7.00
36 | O=C(Nc1cc(-c2ccc3ncccc3c2)cc2c1[C@H](c1cc(F)ccc1Cl)NC2=O)c1cc(F)cc(C(F)(F)F)c1 [Compound I-894] | > 6.00 | ≥ 7.00
37 | CC(C)(O)c1cc(NC(=O)N2C[C@@H](O)c3ccccc32)c2c(c1)C(=O)N[C@H]2c1cc(F)ccc1Cl (single isomer, unassigned) [Compound I-2124] | 5.30 to 6.00 | ≥ 7.00
38 | O=C(Nc1cc(-c2cnoc2)cc2c1C(c1cc(F)ccc1Cl)NC2=O)c1cc(F)cc(C(F)(F)F)c1 (stereo not shown) [Compound I-935] | > 6.00 | ≥ 7.00
39 | Nc1cc(NC(=O)c2cc(F)cc(C(F)(F)F)c2)c2c(c1)C(=O)N[C@H]2c1cc(F)ccc1Cl [Compound I-218] | > 6.00 | ≥ 7.00
40 | Cc1ccccc1C1NC(=O)c2cccc(NC(=O)c3csc4ccc(F)cc34)c21 (stereo not shown) [Compound I-26] | 5.30 to 6.00 | 6.30 to 7.00
41 | O=C(Nc1cc(-c2cncs2)cc2c1C(c1cc(F)ccc1Cl)NC2=O)c1cc(F)cc(C(F)(F)F)c1 (stereo not shown) [Compound I-1065] | > 6.00 | ≥ 7.00
42 | Cc1ccccc1[C@@H]1NC(=O)c2cccc(NC(=O)c3csc4ccccc34)c21 [Compound I-5] | 5.30 to 6.00 | ≥ 7.00
43 | Cn1ccc(-c2cc(NC(=O)c3cc(F)cc(C(F)(F)F)c3)c3c(c2)C(=O)N[C@@H]3c2cc(F)ccc2Cl)cc1=O (stereo in doubt) [Compound I-1002] | > 6.00 | ≥ 7.00
44 | Cc1ccccc1C1NC(=O)c2cc(N)cc(NC(=O)c3csc4ccccc34)c21 (stereo not shown) [Compound I-34] | 5.30 to 6.00 | ≥ 7.00
45 | CC(C#N)c1cc(NC(=O)c2cc(F)cc(C(F)(F)F)c2)c2c(c1)C(=O)N[C@H]2c1cc(F)ccc1Cl (stereo partly shown) [Compound I-2290] | > 6.00 | ≥ 7.00
46 | O=C(Nc1cc(-c2ccc3ncncc3c2)cc2c1C(c1cc(F)ccc1Cl)NC2=O)c1cc(F)cc(C(F)(F)F)c1 (stereo not shown) [Compound I-1093] | > 6.00 | ≥ 7.00
47 | COc1ncccc1-c1cc(NC(=O)c2cc(F)cc(C(F)(F)F)c2)c2c(c1)C(=O)NC2c1cc(F)ccc1Cl (stereo not shown) [Compound I-1091] | > 6.00 | ≥ 7.00
48 | O=C1NC(c2cc(F)ccc2Cl)c2c(NC(=O)N3CC(O)(C(F)(F)F)c4cc(F)ccc43)cc(F)cc21 (stereo not shown) [Compound I-2623] | > 6.00 | ≥ 7.00
49 | O=C(Nc1cc(-c2cn[nH]c2)cc2c1C(c1cc(F)ccc1Cl)NC2=O)c1cc(F)cc(C(F)(F)F)c1 (stereo not shown) [Compound I-878] | > 6.00 | ≥ 7.00
50 | Cc1nc2ccc(-c3cc(NC(=O)c4cc(F)cc(C(F)(F)F)c4)c4c(c3)C(=O)NC4c3cc(F)ccc3Cl)cn2n1 (stereo not shown) [Compound I-1123] | > 6.00 | ≥ 7.00
51 | CS(=N)(=O)Cc1cc(NC(=O)c2cc(F)cc(C(F)(F)F)c2)c2c(c1)C(=O)NC2c1cc(F)ccc1Cl (stereo not shown) [Compound I-1018] | > 6.00 | ≥ 7.00
52 | Cc1cn(-c2cc(NC(=O)N3C[C@](O)(C(F)(F)F)c4cc(F)ccc43)c3c(c2)C(=O)N[C@@H]3c2cc(F)ccc2Cl)cn1 (single isomer, unassigned) [Compound I-2637] | > 6.00 | ≥ 7.00
53 | O=C(Nc1cc(-c2cccc3nonc23)cc2c1C(c1cc(F)ccc1Cl)NC2=O)c1cc(F)cc(C(F)(F)F)c1 (stereo not shown) [Compound I-1031] | > 6.00 | ≥ 7.00
